Laboratory results as given in patent US4258029A, “Synthetic adjuvants for stimulation of antigenic responses” (Connaught Laboratories Limited, priority 1979, dated 1981).

Experiments:
[1] = test system: guinea pigs which had been sensitized to tetanus toxoid; conditions: guinea pig, in vivo
[2] = test system: tetanus toxoid; design: species or system guinea pigs; conditions: guinea pig, in vivo, sc
[3] = test system: tetanus toxoid; test: Tetanus toxoid remaining in supernatant after stirring with octadecyl tyrosine; format: physicochemical; conditions: pH 7.0, 24 hours room temperature
Protocol: Tetanus toxoid solution (10 ml, 30 Lf/ml, pH 7.0) was placed in a container with a magnetic stirring bar. An ether solution of octadecyl tyrosine (0.3 ml, 30 mg/ml) was added, the mixture stirred rapidly and the ether removed under vacuum. The resulting cloudy solution was stirred at room temperature for 24 hours.
To tetanus toxoid solution (10 ml, 30 Lf/ml, pH 7.0) was added dry octadecyl tyrosine base (10 mg) and the mixture stirred for 24 hours at room temperature.

Compound	Diameter of skin reaction [1]	Antibody Units/ml, 4 Weeks [2]	Antibody Units/ml, 61/2 weeks [2]	tetanus toxoid in supernatant, Procedure B ([3]; dry base 10 mg added to 10 ml toxoid 30 Lf/ml)	tetanus toxoid in supernatant, Procedure A ([3]; ether solution 0.3 ml, 30 mg/ml added to 10 ml toxoid 30 Lf/ml, after centrifuging)
Tetanus Toxoid	17 ± 1.47 mm	1.39 ± 0.2 Units/ml	7.2 ± 1.2 Units/ml		
CCCCCCCCCCCCCCCCCCOC(=O)[C@@H](N)Cc1ccc(O)cc1 [octadecyl tyrosine]				no detectable tetanus toxoid	no detectable tetanus toxoid
